Numbering of substitutions follows the chain as printed. One block for each compound: values may come before it.
How the values were obtained:
[1] = system: fetal rat calvarial osteoblast primary cell cultures; test: BMP-induced bone nodules in fetal rat calvarial osteoblast primary cell cultures; format: cell-based; details: FIG. 6
[2] = system: bone growth; test: Collagen disc implantation with Noggin-blockers and BMP-2 in rat ectopic model; format: in vivo, Harlan athymic rats; details: for Average / Results: 100ul, collagen carrier, chest implant, 4 weeks
Description: Harlan athymic rats about 5-6 weeks of age were chest implanted with a collegan disc and doses of N50 in combination with BMP-2. After 4 weeks the rats were sacrificed and evaluated for bone growth.

[3] = biological target: T1, Noggin (Homo sapiens, UniProt Q13253); test: in vitro cell-based screening assays (luciferase reporter and ALP assays in C2C12 cells); details: BMP-2 +/- Noggin, FIG. 2-5
T1 construct: host or cells: added to mouse C2C12 cells
T1 sequence (Q13253 28-232): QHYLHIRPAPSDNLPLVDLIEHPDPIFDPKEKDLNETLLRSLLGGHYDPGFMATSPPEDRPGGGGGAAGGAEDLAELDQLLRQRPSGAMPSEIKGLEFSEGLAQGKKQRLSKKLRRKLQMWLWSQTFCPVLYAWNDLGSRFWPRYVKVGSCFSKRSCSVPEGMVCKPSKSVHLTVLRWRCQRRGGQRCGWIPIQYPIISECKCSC
Protocol: The known crystals structures of complexes of BMP-2/BMPR-IA, BMP7/Noggin and BMP-2/BMPR-IA/ActR-II and BMPR-II monomer structures were analyzed. Using these structures ternary complexes of BMP-2/BMPR-IA/BMPR-II and BMP-2/Noggin (from BMP7/Noggin) were modeled. Solvent accessibility of complexes and the monomers were computed to identify exact binding regions and the individual residues involved in binding. The entire 430 Å^2 surface area of Noggin that binds to BMP-2 and thus block binding of BMP to BMPR-IA and BMPR-II binding regions were analyzed. Complementary regions in BMP were also evaluated in extensive virtual screenings using LUDI docking procedures using CAP commercially available molecular databases.
Mouse C2C12 cells and Dulbecco's modified Eagle's medium (DMEM) were purchased from ATCC (Manassas, Va.). […] When the flasks reached 80% confluence, the cells were trypsinized and seeded in triplicate at 200,000 cells/well in a 6-well plate for quantitative real-time RT-PCR and alkaline phosphatase (ALP) assays or at 50,000 cells/well in a 12-well plate for the dual-luciferase reporter assay.
The C2C12 cells were plated at 200,000 cells/well in 6-well plates and grown overnight in DMEM containing 10% FBS. […] The ALP activity was measured in triplicate using an ALP assay kit (Sigma-Aldrich, St. Louis, Mo.) in microtiter plates. […]

[4] = biological target: T2, endogenous Noggin (Mus musculus, UniProt P97466); test: BMP-induced ALP activity in C2C12 cells without exogenously added Noggin; format: cell-based; details: absence of exogenously added Noggin, FIG. 8
T2 construct: in the absence of exogenously added Noggin in C2C12 cells; endogenous in cells; host or cells: mouse C2C12 cells (ATCC)
T2 sequence (P97466 28-232): T1 sequence (Q13253 28-232) with A67P
Protocol: Mouse C2C12 cells and Dulbecco's modified Eagle's medium (DMEM) were purchased from ATCC (Manassas, Va.). The non-heat inactivated fetal bovine serum (FBS) was purchased from HyClone Laboratories, Inc. (Logan, Utah). The C2C12 cells at passages 4 to 7 were subcultured in T-75 cm2 flasks in DMEM supplemented with 10% FBS at 37° C. in 5% CO2 with humidification. When the flasks reached 80% confluence, the cells were trypsinized and seeded in triplicate at 200,000 cells/well in a 6-well plate for quantitative real-time RT-PCR and alkaline phosphatase (ALP) assays or at 50,000 cells/well in a 12-well plate for the dual-luciferase reporter assay.
The C2C12 cells were plated at 200,000 cells/well in 6-well plates and grown overnight in DMEM containing 10% FBS. On day 2, the culture medium was replaced with DMEM containing 2% FBS and the cells were treated with 100 ng/ml of BMP-2, +/−various concentrations of the Noggin-interacting compound, and +/−100 ng/ml of Noggin for 72 hours. […] The ALP activity was measured in triplicate using an ALP assay kit (Sigma-Aldrich, St. Louis, Mo.) in microtiter plates. The protein amount was determined with Bio-Rad protein assay reagent (Bio-Rad, Hercules, Calif.) using bovine serum albumin (BSA) as a standard. […]

Noggin blocking [3]: confirmed Noggin blockers
SMILES: N#CC(=Cc1cccc(Cl)c1)c1ccccn1 (racemic) [N50, 3-(3-chlorophenyl)-2-(pyridin-2-yl)acrylonitrile]
BMP-induced bone nodules [1]: potentiation of BMP-induced bone nodules | Average ([2]; N50 4 mM + BMP-2 1.5 ug): 3 | Results ([2]; N50 4 mM + BMP-2 1.5 ug): Bone made (4 of 4) | Average ([2]; N50 4 mM + BMP-2 5 ug): 4.25 | Results ([2]; N50 4 mM + BMP-2 5 ug): Bone made (4 of 4) | Average ([2]; N50 8 mM + BMP-2 1.5 ug): 1.75 | Results ([2]; N50 8 mM + BMP-2 1.5 ug): Bone made (2 of 4) | Average ([2]; N50 8 mM + BMP-2 5 ug): 3.25 | Results ([2]; N50 8 mM + BMP-2 5 ug): Bone made (3 of 4) | Average ([2]; N50 12 mM + BMP-2 1.5 ug): 3.5 | Results ([2]; N50 12 mM + BMP-2 1.5 ug): Bone made (4 of 4) | Average ([2]; N50 12 mM + BMP-2 5 ug): 4.75 | Results ([2]; N50 12 mM + BMP-2 5 ug): Bone made (4 of 4) | bone growth ([2]; N50 in combination with BMP-2, after 4 weeks, certain doses): Certain doses showed improvement

Noggin blocking [3]: confirmed Noggin blockers
SMILES: Cc1cc(C)nc(NC(=O)c2sc3ccccc3c2Cl)c1 [N2, 3-chloro-N-(4,6-dimethylpyridin-2-yl)benzo[b]thiophene-2-carboxamide]

SMILES: Cc1ccc(C(C#N)=Cc2cccc([N+](=O)[O-])c2)cc1 [N50-083, 3-(3-nitrophenyl)-2-(p-tolyl)acrylonitrile]
function of endogenous Noggin / BMP-induced ALP activity [4]: blocks function of endogenous Noggin by potentiating BMP-induced ALP activity
